For test [1], the system named is HepG2. Kind of test: Downregulation of PCSK9 protein level in human HepG2 cells by Western blotting analysis. It is filed as functional, cell-based.
For test [2], the system named is HepG2. Kind of test: Downregulation of LDLR protein level in human HepG2 cells by Western blotting analysis. The test is classed as functional, cell-based.

Active and inactive are the calls of the source. The calls are words filed in the database; no cut-off is given here.

Regarding `CC(C)(C)OC(=O)N1CCN(Cc2ccc3nc(NC(=O)c4ccc(S(=O)(=O)NCCC#N)cc4)sc3c2)CC1`, the result in the test with HepG2 [1] and in the test with HepG2 [2] was Active.

The values are drawn from ChEMBL document CHEMBL5584202, “Identification of benzothiazoles as novel PCSK9 inhibitors” (Bioorg Med Chem Lett, 2024).
